Source: patent publication US20240024494A1, “SMALL-MOLECULE CONJUGATE AND USE THEREOF” (SHANGHAI MEWSGEN BIOTECHNOLOGY CO., LTD, priority 2020, published 2024)
Where two headings read alike, the source gives them in different places.

Legend:
[1] = system: HCT116 (human colon carcinoma cells); test: Tumor cell proliferation inhibition test, CCK-8 method (Example 19); format: cell-based
Description: (§1) A part of the compounds prepared in the examples of the present disclosure were subjected to a tumor cell proliferation inhibition test by using a CCK-8 method. A cell line HCT116 (human colon carcinoma cells) and SW1990 (human pancreatic carcinoma cells) were purchased from Shanghai Meixuan Technology Co., Ltd. Samples (a part of the compounds prepared in the examples) were dissolved in DMSO (Merck), prepared into a concentration of 10 mM, and finally triply diluted in DMEM or McCoy's 5A 1640 medium to 8 concentration gradients. A cell culture solution was collected when a cell culture met a test requirement, 10 μL of the cell culture solution was uniformly coated on a cell counting plate, cells were counted for 3 times under a microscope, and a cell density was calculated by taking an average value; and a 96-well plate (Corning, #3599) was taken, 200 μL of the cell culture solution was added into each well for cell inoculation at a cell concentration of 6×10^3 cells per well, and the inoculated 96-well plate was incubated in a cell incubator containing 5% CO2 at 37° C. for 24 h. An old culture medium was removed by suction, 200 μL of the triply diluted sample DMEM or McCoy's 5A 1640 medium at an initial concentration of 10 μmol/L was added to each well, the DMSO content was controlled to be 1%, three duplicate wells were set, PBS was used as a blank control, and the plate was incubated in the incubator for 72 h. The original DMEM or McCoy's 5A 1640 medium in the 96-well plate and a PBS buffer in a final row were sucked out, a prepared CCK-8 solution (90% DMEM or McCoy's 5A 1640 medium+10% CCK-8) was added, the mixture was incubated in an incubator, and an absorbance was read by using a Biotek microplate reader. Cell growth inhibition rate IC %=(blank control well OD value−administration well OD value)/blank control well OD value×100%.

[2] = system: SW1990 (human pancreatic carcinoma cells); test: as above; format: cell-based
Description: as §1

[3] = In-vivo antitumor activity test in human stromal tumor SHG44 (subcutaneous tumor block in nude mice); set-up: species or system BALB/C nude mice; conditions: for RTV (d22) / Tumor inhibition rate % / Body weight of animals (After a tumor is removed): SHG44; for Tumor inhibition rate % / Body weight of animals (After a tumor is removed): d22; for Body weight of animals (After a tumor is removed): in g (unit assumed)
Description: (§2) Animals: BALB/C nude mice (SPF grade), male, and 18-20 g. The compounds were firstly added with DMSO at a total amount of 4%, then added with Tween-80 at a total amount of 2% for assisting dissolution, then added with PEG300 at a total amount of 5%, and finally added with sterilized normal saline to be prepared into a solution at 1 mg/mL. Idasanutlin was firstly added with DMSO at a total amount of 4%, then added with Tween-80 at a total amount of 2% for assisting dissolution, then added with PEG300 at a total amount of 5%, and finally added with sterilized normal saline to be prepared into a solution at 2.5 mg/mL.
(§3) A well-grown human stromal tumor SHG44 mass was taken and aseptically cut into uniform small blocks of about 3 mm in size, and a right axilla of each mouse was subcutaneously inoculated with one block through a trocar. […] The animals were regrouped according to a tumor size. The animals with too large and too small tumors were sifted out. An average tumor volume in each group was approximately the same. An administration was started according to the following solution with an administration volume of 0.2 mL/20 g body weight. A long diameter a (mm) of the tumor and a short diameter b (mm) vertical to the tumor were measured by a digital display electronic caliper 2 times a week from day 9 of the inoculation. A tumor volume was calculated by the formula: TV=ab^2/2, and a relative tumor volume was calculated by the formula: RTV=Vt/Vo, wherein Vo was the obtained tumor volume measured at a cage separation (i.e. d1) and Vt was the tumor volume measured at each time. The animals were sacrificed 30 days after the inoculation (d22) and weighed, tumor mass was obtained by dissection and weighed, and the results were determined according to the following formula: […]

[4] = system: human gastric carcinoma MGC803; test: In-vivo antitumor activity test in human gastric carcinoma MGC803 (subcutaneous tumor block in nude mice); set-up: species or system BALB/C nude mice; conditions: for RTV (d22) / Body weight of animals (After a tumor is removed) / Tumor inhibition rate %: MGC803; for Body weight of animals (After a tumor is removed) / Tumor inhibition rate %: d22
Description: as §2
as §3, with “gastric carcinoma MGC803” for “stromal”, “tumor” for “tumor SHG44”

[5] = system: human esophageal cancer KYSE-150; test: In-vivo antitumor activity test in human esophageal cancer KYSE-150 (subcutaneous tumor block in nude mice); set-up: species or system BALB/C nude mice; conditions: for RTV (d22) / Body weight of animals (After a tumor is removed) / Tumor inhibition rate %: KYSE-150; for Body weight of animals (After a tumor is removed) / Tumor inhibition rate %: d22
Description: as §2
as §3, with “esophageal cancer KYSE-150” for “stromal”, “tumor” for “tumor SHG44”

hERG potassium channel = hERG potassium channel (Homo sapiens, UniProt Q12809); test: cell-based
Sequence of hERG potassium channel (Q12809 whole entry): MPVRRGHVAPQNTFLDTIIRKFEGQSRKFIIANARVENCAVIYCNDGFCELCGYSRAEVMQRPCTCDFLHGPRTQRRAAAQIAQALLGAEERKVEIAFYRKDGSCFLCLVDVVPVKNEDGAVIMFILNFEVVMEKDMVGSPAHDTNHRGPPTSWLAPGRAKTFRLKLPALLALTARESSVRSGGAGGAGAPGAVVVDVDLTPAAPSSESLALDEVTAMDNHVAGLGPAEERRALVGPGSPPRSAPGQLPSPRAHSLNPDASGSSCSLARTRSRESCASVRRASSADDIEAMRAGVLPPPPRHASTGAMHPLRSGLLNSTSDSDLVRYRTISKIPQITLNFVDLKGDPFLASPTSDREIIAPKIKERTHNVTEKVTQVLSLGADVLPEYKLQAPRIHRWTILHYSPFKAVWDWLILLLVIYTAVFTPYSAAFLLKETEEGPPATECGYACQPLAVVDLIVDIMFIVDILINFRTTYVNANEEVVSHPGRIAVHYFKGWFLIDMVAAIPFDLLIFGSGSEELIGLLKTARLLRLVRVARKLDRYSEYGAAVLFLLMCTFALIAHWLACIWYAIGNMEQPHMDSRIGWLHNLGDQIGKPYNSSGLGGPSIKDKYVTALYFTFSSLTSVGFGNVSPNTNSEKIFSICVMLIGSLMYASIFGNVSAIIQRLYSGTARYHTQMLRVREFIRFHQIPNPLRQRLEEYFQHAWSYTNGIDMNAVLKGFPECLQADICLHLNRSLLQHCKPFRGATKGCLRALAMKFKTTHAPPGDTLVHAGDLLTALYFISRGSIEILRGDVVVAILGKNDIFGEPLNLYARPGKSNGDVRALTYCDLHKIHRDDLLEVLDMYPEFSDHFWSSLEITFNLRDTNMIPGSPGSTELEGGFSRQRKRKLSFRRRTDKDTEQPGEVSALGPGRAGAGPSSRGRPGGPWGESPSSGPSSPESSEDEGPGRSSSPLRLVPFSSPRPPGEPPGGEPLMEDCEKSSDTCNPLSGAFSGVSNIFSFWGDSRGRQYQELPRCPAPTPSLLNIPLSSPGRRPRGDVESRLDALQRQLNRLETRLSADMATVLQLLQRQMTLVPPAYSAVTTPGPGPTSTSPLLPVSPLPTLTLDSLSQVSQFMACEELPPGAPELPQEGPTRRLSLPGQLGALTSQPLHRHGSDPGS
Description: CHO-hERG cells were cultured in a 175-cm^2 culture flask. After a cell density reached a culture solution was removed, and the cells were washed once with 7 mL of phosphate buffered saline (PBS) and digested with 3 mL of detachin. After the complete digestion, 7 mL of a culture solution was added for neutralization, the mixture was centrifuged, a supernatant was sucked away, and then 5 mL of the culture solution was added for resuspension so as to ensure that the cell density was 2-5×10^6/mL.
Forming processes of single-cell high-impedance sealing and whole-cell mode were both automatically completed by a Qpatch instrument. After a whole-cell recording mode was obtained, cells were clamped at −80 millivolts. Before a depolarization stimulation of +40 millivolt for 5 seconds was given, a preset voltage of −50 millivolts was firstly given for 50 milliseconds, then repolarization was performed to −50 millivolt and maintained for 5 seconds, and then the voltage returned to −80 millivolts. […] At least 3 cells (n≥3) were tested per concentration.
20 mM of a compound stock was diluted in DMSO, and 10 μL of 20 mM of the compound stock was added to 20 μL of a DMSO solution and triply serially diluted to 6 DMSO concentrations. […] Experimental data was analyzed by a GraphPad Prism 5.0 software.

[6] = 10 mg/kg, Ipx5 each week for 2 continuous weeks

For `COc1cc(C(=O)NCCOCCOCCOCCOCCC(=O)N[C@@H](C(=O)N[C@@H](CCCNC(N)=O)C(=O)Nc2ccc(COC(=O)N3CCN(C(=O)O[C@H]4CC[C@@]5(C)[C@H](CC[C@@H]6[C@@H]5[C@H](O)C(=O)[C@]5(C)[C@@H](c7ccc(=O)oc7)CC[C@]65O)C4)CC3)cc2)C(C)C)ccc1NC(=O)[C@@H]1N[C@@H](CC(C)(C)C)[C@](C#N)(c2ccc(Cl)cc2F)[C@H]1c1cccc(Cl)c1F` [Compound I-1], the IC50 ([1]; 72 h) was 34 nM, the IC50 ([2]; 72 h) was 7 nM and the “in-vivo antitumor activity of the human stromal tumor SHG44 (in words)” value [3] was “good in-vivo antitumor activity”. For the same compound, the “RTV (d22)” value [3, 6] was 2.34 ± 0.32, the “Tumor inhibition rate %” value [3, 6] was 52.03% and the “Body weight of animals (After a tumor is removed)” value (shortened to “Body weight of animals”) [3, 6] was 24.78 ± 2.38. For the same compound, the “in-vivo antitumor activity of the human gastric carcinoma MGC803 (in words)” value [4] was “good in-vivo antitumor activity”, the “RTV (d22)” value [4, 6] was 2.45 ± 0.54 and the “Body weight of animals” value [4, 6] was 26.15 ± 1.14. For the same compound, the “Tumor inhibition rate %” value [4, 6] was 38.54%, the “in-vivo antitumor activity of the human esophageal cancer KYSE-150 (in words)” value [5] was “good in-vivo antitumor activity” and the “RTV (d22)” value [5, 6] was 4.87 ± 0.92. For the same compound, the “Body weight of animals” value [5, 6] was 24.51 ± 1.40, the “Tumor inhibition rate %” value [5, 6] was 50.45% and the IC50 (hERG potassium channel) was over 40 µM.

In the case of `COc1cc(C(=O)O)ccc1NC(=O)[C@@H]1N[C@@H](CC(C)(C)C)[C@](C#N)(c2ccc(Cl)cc2F)[C@H]1c1cccc(Cl)c1F` [Idasanutlin, reference compound], the IC50 ([1]; Homo sapiens, HCT-116, CCK-8, 72 h, Table 1, read-out: IC50 HCT116) is reported as 1060 nM, the IC50 ([2]; Homo sapiens, SW1990, CCK-8, 72 h, Table 1, read-out: IC50 SW1990) is reported as 2980 nM and the “RTV (d22)” value ([3]; 25 mg/kg, Igx14) is reported as 2.95 ± 0.41. For the same compound, the “Tumor inhibition rate %” value ([3]; 25 mg/kg, Igx14) was 39.59%, the “Body weight of animals” value ([3]; 25 mg/kg, Igx14) was 24.47 ± 1.66 and the “RTV (d22)” value ([4]; 25 mg/kg, Igx14) was 2.74 ± 0.81. For the same compound, the “Body weight of animals” value ([4]; 25 mg/kg, Igx14) was 23.58 ± 1.56, the “Tumor inhibition rate %” value ([4]; 25 mg/kg, Igx14) was 31.36% and the “RTV (d22)” value ([5]; 25 mg/kg, Igx14) was 4.79 ± 0.41. The “Body weight of animals” value ([5]; 25 mg/kg, Igx14) was 24.03 ± 0.95 and the “Tumor inhibition rate %” value ([5]; 25 mg/kg, Igx14) was 51.17%.
